Test results as given in PubChem BioAssay AID1259407 (Chemical Carcinogenesis Research Information System (CCRIS), 2018).
Calls of active or inactive are those of the source. The rule behind the calls is not given here.

Tested on: CCRIS mutagenicity, Ames/micronucleus/aberration tests
Assay: CCRIS mutagenicity studies
[1] = Test System: AMES SALMONELLA TYPHIMURIUM, Strain/Indicator: TA98, Metabolic Activation: NONE, Method: PREINCUBATION
[2] = Test System: AMES SALMONELLA TYPHIMURIUM, Strain/Indicator: TA100, Metabolic Activation: NONE, Method: STANDARD PLATE
[3] = Test System: AMES SALMONELLA TYPHIMURIUM, Strain/Indicator: TA98, Metabolic Activation: NONE, Method: STANDARD PLATE
[4] = Test System: AMES SALMONELLA TYPHIMURIUM, Strain/Indicator: TA1535, Metabolic Activation: NONE, Method: STANDARD PLATE
[5] = Test System: AMES SALMONELLA TYPHIMURIUM, Strain/Indicator: TA1535, Metabolic Activation: NONE, Method: PREINCUBATION
[6] = Test System: E. COLI, Strain/Indicator: WP2 UVRA (PKM101), Metabolic Activation: NONE, Method: STANDARD PLATE
[7] = Test System: AMES SALMONELLA TYPHIMURIUM, Strain/Indicator: TA98, Metabolic Activation: RAT, LIVER, S-9, AROCLOR 1254, Method: STANDARD PLATE
[8] = Test System: AMES SALMONELLA TYPHIMURIUM, Strain/Indicator: TA100, Metabolic Activation: RAT, LIVER, S-9, AROCLOR 1254, Method: STANDARD PLATE

## CC(=O)Nc1ccc(S(N)(=O)=O)cc1
[1]
  mutagenic call: inactive; negative
Test System: AMES SALMONELLA TYPHIMURIUM, Strain/Indicator: TA98, Metabolic Activation: RAT, LIVER, S-9, AROCLOR 1254, Method: PREINCUBATION
  mutagenic call: inactive; negative
Test System: AMES SALMONELLA TYPHIMURIUM, Strain/Indicator: TA100, Metabolic Activation: NONE, Method: PREINCUBATION
  mutagenic call: inactive; negative
Test System: AMES SALMONELLA TYPHIMURIUM, Strain/Indicator: TA100, Metabolic Activation: RAT, LIVER, S-9, AROCLOR 1254, Method: PREINCUBATION
  mutagenic call: inactive; negative

## COc1ccc(CO)cc1
[2]
  mutagenic call: inactive; negative

## O=[N+]([O-])c1c(-c2ccc(Cl)cc2)nc2sccn12
[3]
  mutagenic call: active; positive
[2]
  mutagenic call: inactive; negative
[4]
  mutagenic call: inactive; negative
Test System: AMES SALMONELLA TYPHIMURIUM, Strain/Indicator: TA1537, Metabolic Activation: NONE, Method: STANDARD PLATE
  mutagenic call: active; positive
Test System: AMES SALMONELLA TYPHIMURIUM, Strain/Indicator: TA1538, Metabolic Activation: NONE, Method: STANDARD PLATE
  mutagenic call: active; positive

## [N-]=[N+]=NCCO
[4]
  mutagenic call: active; positive

## CC(=O)OC/C=C(\C)CCC=C(C)C
End Point: IN VITRO CHROMOSOMAL ABERRATIONS, Test System: CHINESE HAMSTER OVARY CELLS, Metabolic Activation: NONE
  mutagenic call: inactive; negative; precipitation occurred at 100 ug/ml
End Point: IN VITRO CHROMOSOMAL ABERRATIONS, Test System: CHINESE HAMSTER OVARY CELLS, Metabolic Activation: RAT, LIVER, S-9, AROCLOR 1254
  mutagenic call: inactive; negative; precipitation occurred at 150 ug/ml

## NN
End Point: IN VITRO CHROMOSOMAL ABERRATIONS, Test System: CHL CELLS, Metabolic Activation: NONE
  mutagenic call: active; positive (structural changes)
End Point: IN VITRO CHROMOSOMAL ABERRATIONS, Test System: CHL CELLS, Metabolic Activation: RAT, LIVER, S-9, SODIUM PHENOBARBITAL AND 5,6-BENZOFLAVONE
  mutagenic call: active; positive (structural changes)
Test System: AMES SALMONELLA TYPHIMURIUM, Strain/Indicator: G46, Metabolic Activation: HAMSTER, LIVER, HOMOGENATE, Method: PREINCUBATION
  mutagenic call: active; positive
Test System: AMES SALMONELLA TYPHIMURIUM, Strain/Indicator: G46, Metabolic Activation: MOUSE, LIVER, HOMOGENATE, Method: PREINCUBATION
  mutagenic call: active; positive
Test System: AMES SALMONELLA TYPHIMURIUM, Strain/Indicator: G46, Metabolic Activation: RAT, LIVER, HOMOGENATE, Method: PREINCUBATION
  mutagenic call: active; positive
Test System: AMES SALMONELLA TYPHIMURIUM, Strain/Indicator: TA98, Metabolic Activation: RAT LIVER S-9, PHENOBARBITAL AND BETA-NAPHTHOFLAVONE, Method: PREINCUBATION
  mutagenic call: inactive; negative
Test System: AMES SALMONELLA TYPHIMURIUM, Strain/Indicator: TA100, Metabolic Activation: RAT LIVER S-9, PHENOBARBITAL AND BETA-NAPHTHOFLAVONE, Method: PREINCUBATION
  mutagenic call: inactive; negative
Test System: AMES SALMONELLA TYPHIMURIUM, Strain/Indicator: TA102, Metabolic Activation: NONE, Method: PREINCUBATION
  mutagenic call: active; positive
Test System: AMES SALMONELLA TYPHIMURIUM, Strain/Indicator: TA102, Metabolic Activation: NONE, Method: STANDARD PLATE
  mutagenic call: inactive; negative
Test System: AMES SALMONELLA TYPHIMURIUM, Strain/Indicator: TA1535, Metabolic Activation: HAMSTER, LIVER, HOMOGENATE, Method: PREINCUBATION
  mutagenic call: active; positive
Test System: AMES SALMONELLA TYPHIMURIUM, Strain/Indicator: TA1535, Metabolic Activation: MOUSE, LIVER, HOMOGENATE, Method: PREINCUBATION
  mutagenic call: active; positive
[5]
  mutagenic call: active; positive
Test System: AMES SALMONELLA TYPHIMURIUM, Strain/Indicator: TA1535, Metabolic Activation: RAT LIVER S-9, PHENOBARBITAL AND BETA-NAPHTHOFLAVONE, Method: PREINCUBATION
  mutagenic call: active; positive
Test System: AMES SALMONELLA TYPHIMURIUM, Strain/Indicator: TA1535, Metabolic Activation: RAT, LIVER, HOMOGENATE, Method: PREINCUBATION
  mutagenic call: active; positive
Test System: AMES SALMONELLA TYPHIMURIUM, Strain/Indicator: TA1537, Metabolic Activation: NONE, Method: PREINCUBATION
  mutagenic call: inactive; negative
Test System: AMES SALMONELLA TYPHIMURIUM, Strain/Indicator: TA1537, Metabolic Activation: RAT LIVER S-9, PHENOBARBITAL AND BETA-NAPHTHOFLAVONE, Method: PREINCUBATION
  mutagenic call: inactive; negative
Test System: AMES SALMONELLA TYPHIMURIUM, Strain/Indicator: TA2638, Metabolic Activation: NONE, Method: STANDARD PLATE
  mutagenic call: inactive; negative
Test System: E. COLI, Strain/Indicator: WP2 (PKM101), Metabolic Activation: NONE, Method: STANDARD PLATE
  mutagenic call: active; positive
[6]
  mutagenic call: active; positive
Test System: E. COLI, Strain/Indicator: WP2 UVRA, Metabolic Activation: NONE, Method: PREINCUBATION
  mutagenic call: active; positive
Test System: E. COLI, Strain/Indicator: WP2 UVRA, Metabolic Activation: RAT, LIVER, MICROSOMES, PHENOBARBITAL, Method: PREINCUBATION
  mutagenic call: active; positive
Test System: E.COLI, Strain/Indicator: WP2UVRA, Metabolic Activation: NONE, Method: PREINCUBATION
  mutagenic call: active; positive
Test System: E.COLI, Strain/Indicator: WP2UVRA, Metabolic Activation: RAT LIVER S-9, PHENOBARBITAL AND BETA-NAPHTHOFLAVONE, Method: PREINCUBATION
  mutagenic call: active; positive

## NCCCNCCCCN(CCCN)/[N+]([O-])=N/O
[5]
  mutagenic call: active; positive
[4]
  mutagenic call: active; positive
Test System: CHINESE HAMSTER OVARY, Strain/Indicator: CHO-K1-BH4 (HGPRT)/6-THIOGUANINE, Metabolic Activation: NONE
  mutagenic call: active; positive
[6]
  mutagenic call: active; positive
Test System: E. COLI, Strain/Indicator: WP2 UVRA/OXYR (PKM101), Metabolic Activation: NONE, Method: STANDARD PLATE
  mutagenic call: active; positive
Test System: E. COLI, Strain/Indicator: WP2 UVRA/UMUDC, Metabolic Activation: NONE, Method: STANDARD PLATE
  mutagenic call: active; positive
Test System: E. COLI, Strain/Indicator: WP2 UVRA, Metabolic Activation: NONE, Method: STANDARD PLATE
  mutagenic call: active; positive
Test System: MOUSE LYMPHOMA, Strain/Indicator: L5178Y (TK+/TK-), Metabolic Activation: NONE, Method: SUSPENSION/PLATE
  mutagenic call: active; positive

## O=C(O)c1ccc(ON2P(Oc3ccc(C(=O)O)cc3)N=P(Oc3ccc(C(=O)O)cc3)(Oc3ccc(C(=O)O)cc3)N(Oc3ccc(C(=O)O)cc3)P2Oc2ccc(C(=O)O)cc2)cc1 (stereo not drawn)
[3]
  mutagenic call: inactive; negative
[7]
  mutagenic call: inactive; negative
[2]
  mutagenic call: inactive; negative
[8]
  mutagenic call: inactive; negative

## Cc1ccc2c(C)c3ccccc3c(C)c2c1
[3]
  mutagenic call: active; positive
[7]
  mutagenic call: active; positive
[2]
  mutagenic call: inactive; negative
[8]
  mutagenic call: active; positive

## c1ccc2c(c1)-c1cc3ccccc3cc1[C@H]1O[C@@H]21
[1]
  mutagenic call: active; positive
[3]
  mutagenic call: active; positive
[2]
  mutagenic call: active; positive
Test System: CHINESE HAMSTER V-79, Strain/Indicator: V-79/8-AZAGUANINE, Metabolic Activation: NONE, Method: STANDARD PLATE
  mutagenic call: active; positive
Test System: UDS HUMAN FIBROBLASTS, Strain/Indicator: THY INCORP (NON-S-PHASE), Metabolic Activation: NONE, Method: AUTORADIOGRAPHY
  mutagenic call: active; positive

## C[C@H](CCC(=O)O)[C@H]1CC[C@H]2[C@@H]3[C@H](O)C[C@@H]4C[C@H](O)CC[C@]4(C)[C@H]3C[C@H](O)[C@]12C
[1]
  mutagenic call: inactive; negative
Test System: AMES SALMONELLA TYPHIMURIUM, Strain/Indicator: TA98, Method: PREINCUBATION
  mutagenic call: inactive; negative
[2]
  mutagenic call: inactive; negative
[8]
  mutagenic call: inactive; negative

## c1ccc2c(c1)CC[C@@H]1CCCC[C@@H]21
Test System: AMES SALMONELLA TYPHIMURIUM, Strain/Indicator: TA98, Metabolic Activation: RAT, LIVER, S-9, SODIUM PHENOBARBITAL AND BETA-NAPHTHOFLAVONE, Method: STANDARD PLATE
  mutagenic call: inactive; negative
Test System: AMES SALMONELLA TYPHIMURIUM, Strain/Indicator: TA100, Metabolic Activation: RAT, LIVER, S-9, SODIUM PHEOBARBITAL AND BETA-NAPHTHOFLAVONE, Method: STANDARD PLATE
  mutagenic call: inactive; negative
